Measured values as given in ChEMBL document CHEMBL5726331, “Pyridinone and pyrimidinone derivatives as factor Xia” (2017).

Molecular target: Coagulation factor XI (Homo sapiens, UniProt P03951)
Assay: Enzyme Activity Assay: Human Factor XIa (Haematologic Technologies Inc.) activity was measured at an enzyme concentration of 0.1 U/mL in 150 mM NaCl, 5 mM KCl, 1 mg/mL PEG6000, 50 mM HEPES-NaOH (pH7.4) with 300 μM S-2366 (pyroGlu-Pro-Arg-pNA, Chromogenix).

Chain of Coagulation factor XI (P03951 19-387 limits assumed): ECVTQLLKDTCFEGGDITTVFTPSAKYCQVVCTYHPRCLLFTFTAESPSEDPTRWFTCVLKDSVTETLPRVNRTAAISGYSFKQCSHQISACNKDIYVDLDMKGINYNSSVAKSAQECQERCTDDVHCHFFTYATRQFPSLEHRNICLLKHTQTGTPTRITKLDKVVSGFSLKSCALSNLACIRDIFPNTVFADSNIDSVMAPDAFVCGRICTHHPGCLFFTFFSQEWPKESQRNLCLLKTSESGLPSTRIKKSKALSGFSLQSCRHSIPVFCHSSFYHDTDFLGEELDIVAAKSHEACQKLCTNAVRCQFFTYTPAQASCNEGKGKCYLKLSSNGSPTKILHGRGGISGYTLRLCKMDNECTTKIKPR
Chain of Coagulation factor XI (P03951 388-625 limits assumed): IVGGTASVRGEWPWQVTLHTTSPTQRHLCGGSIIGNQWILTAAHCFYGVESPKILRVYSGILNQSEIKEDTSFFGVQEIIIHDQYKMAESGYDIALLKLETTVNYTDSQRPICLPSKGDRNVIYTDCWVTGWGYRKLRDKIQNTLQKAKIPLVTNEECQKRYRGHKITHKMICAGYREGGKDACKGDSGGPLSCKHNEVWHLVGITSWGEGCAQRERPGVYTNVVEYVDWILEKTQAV

Row | Structure (SMILES) | IC50 [nM]
1 | COC(=O)Nc1ccc(-c2[nH]c([C@H](C)NC(=O)/C=C/c3cc(Cl)ccc3-n3cnnn3)nc2Cl)cc1 | 40
2 | COC(=O)Nc1ccc(-c2[nH]c(CNC(=O)/C=C/c3cc(Cl)ccc3-n3cnnn3)nc2Cl)cc1 | 130
